According to publication PMC3914206:

Columns and labels:
[1] = target: T1, selected panels of kinases in HeLa and PC3 cell lysates (Homo sapiens, UniProt P12931); assay: KiNativ chemical proteomics profiling in HeLa and PC3 cell lysates; assay type: binding; conditions: 10 uM; SRC; peptide VAIk[…]; proteome PC3; labeling site Lys1
T1 construct: endogenous in cells; host or cells: HeLa and PC3 cell lysates

[2] = target: T2, selected panels of kinases in HeLa and PC3 cell lysates (Homo sapiens, UniProt P19784); assay: as above; assay type: binding; conditions: 10 uM; proteome PC3; peptide DVk[…]; labeling site Lys2
T2 construct: endogenous in cells; host or cells: HeLa and PC3 cell lysates

[3] = target: T3, selected panels of kinases in HeLa and PC3 cell lysates (Homo sapiens, UniProt P41743); assay: as above; assay type: binding; conditions: 10 uM; PKCi; peptide IYAMkVVK; proteome HEL; labeling site Lys1
T3 construct: endogenous in cells; host or cells: HeLa and PC3 cell lysates

[4] = target: T4, selected panels of kinases in HeLa and PC3 cell lysates (Homo sapiens, UniProt P52333); assay: as above; assay type: binding; conditions: 10 uM; proteome HEL; peptide IADFGLAkLLPLDKDYYVVR; labeling site Activation Loop
T4 construct: endogenous in cells; host or cells: HeLa and PC3 cell lysates

[5] = target: T5, selected panels of kinases in HeLa and PC3 cell lysates (Homo sapiens, UniProt P54760); assay: as above; assay type: binding; conditions: 10 uM; proteome PC3; peptide […]kIPIR; labeling site Activation Loop
T5 construct: endogenous in cells; host or cells: HeLa and PC3 cell lysates

[6] = target: T6, selected panels of kinases in HeLa and PC3 cell lysates (Homo sapiens, UniProt Q8NEB9); assay: as above; assay type: binding; conditions: 10 uM; PIK3C3; peptide […]kHGDDLR; proteome HEL; labeling site ATP
T6 construct: endogenous in cells; host or cells: HeLa and PC3 cell lysates

[7] = target: T7, selected panels of kinases in HeLa and PC3 cell lysates (Homo sapiens, UniProt Q9P2K8); assay: as above; assay type: binding; conditions: 10 uM
T7 construct: endogenous in cells; host or cells: HeLa and PC3 cell lysates

[8] = target: T8, selected panels of kinases in HeLa and PC3 cell lysates (Homo sapiens, UniProt Q9UKI8); assay: as above; assay type: binding; conditions: 10 uM, TLK1
T8 construct: endogenous in cells; host or cells: HeLa and PC3 cell lysates
T8 sequence (Q9UKI8 1-766): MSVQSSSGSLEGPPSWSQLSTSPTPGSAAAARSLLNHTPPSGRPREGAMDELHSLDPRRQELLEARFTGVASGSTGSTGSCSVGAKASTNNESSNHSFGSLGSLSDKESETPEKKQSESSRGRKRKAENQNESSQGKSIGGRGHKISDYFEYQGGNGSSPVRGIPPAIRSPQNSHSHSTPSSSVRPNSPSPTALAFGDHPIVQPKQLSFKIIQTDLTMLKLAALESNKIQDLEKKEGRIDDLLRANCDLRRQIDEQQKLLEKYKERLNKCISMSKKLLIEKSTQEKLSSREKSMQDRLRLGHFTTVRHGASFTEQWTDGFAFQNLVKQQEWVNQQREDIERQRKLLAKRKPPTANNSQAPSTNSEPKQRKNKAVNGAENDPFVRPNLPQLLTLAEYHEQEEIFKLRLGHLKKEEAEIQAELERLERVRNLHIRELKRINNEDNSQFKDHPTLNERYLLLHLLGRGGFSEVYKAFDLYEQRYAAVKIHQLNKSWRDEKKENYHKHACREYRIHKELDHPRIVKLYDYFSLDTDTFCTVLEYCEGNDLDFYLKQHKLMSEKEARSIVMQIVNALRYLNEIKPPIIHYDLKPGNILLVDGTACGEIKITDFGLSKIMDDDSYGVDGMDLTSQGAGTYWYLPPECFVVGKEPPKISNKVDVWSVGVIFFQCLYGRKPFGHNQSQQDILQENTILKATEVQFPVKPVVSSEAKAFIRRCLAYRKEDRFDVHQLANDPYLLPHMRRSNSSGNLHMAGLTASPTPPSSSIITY

[9] = target: T9, selected panels of kinases in HeLa and PC3 cell lysates (Homo sapiens, UniProt Q9Y6E0); assay: as above; assay type: binding; conditions: 10 uM; proteome HEL; peptide DIk[…]; labeling site Lys2
T9 construct: endogenous in cells; host or cells: HeLa and PC3 cell lysates

panel of 442 kinases = target: T10, panel of 442 kinases (Homo sapiens, UniProt Q5S007); assay type: binding; conditions: Compound Concentration 10 µM
T10 construct: purchased KINOMEscan
From the text: We assessed the selectivity of members of this scaffold using the KINOMEscan methodology across a near comprehensive panel of 442 kinases [[18,27]].

ERK5 = ERK5 (Homo sapiens, UniProt Q13164); assay: ERK5 kinase activity in vitro assay (32P-ATP, PIMtide substrate); assay type: biochemical; design: hexahistidine (His6) (N); made in house; host or cells: Spodoptera frugiperda 21 cells (baculovirus, Bac-to-Bac); conditions: in vitro assay, recombinant active ERK5; read-out: Enzymatic IC50 (ERK5)
Protocol: pFastBAC vector encoding N-terminal hexahistidine-tagged human ERK5 and HA-tagged human MEK5-DD (constitutively active) were used to generate recombinant baculovirus using the Bac-to-Bac system (Invitrogen). […] His-tagged ERK5 was purified as described for His-tagged BRSK1[33], using 5 mL Ni-NTA-agarose resin (Qiagen) followed by gel filtration chromatography on Superdex 200HR column on an AKTA system (GE Healthcare).
Assays were carried out for 20 min at 30 °C, terminated by applying the reaction mixture onto p81 paper and the incorporated radioactivity measured as described previously.

[10] = proteome HEL, peptide LDGCCYAVkR, labeling site Lys1
[11] = proteome PC3, peptide DLk[…], labeling site Lys2
[12] = proteome PC3, peptide LDGCCYAVkR, labeling site Lys1
[13] = peptide YAAVkIHQLNK, proteome HEL, labeling site Lys1
[14] = peptide YAAVkIHQLNK, proteome PC3, labeling site Lys1
[15] = peptide […]k[…], proteome HEL, labeling site Lys2
[16] = peptide […]k[…], proteome PC3, labeling site Lys2

T7 sequence (Q9P2K8 whole entry): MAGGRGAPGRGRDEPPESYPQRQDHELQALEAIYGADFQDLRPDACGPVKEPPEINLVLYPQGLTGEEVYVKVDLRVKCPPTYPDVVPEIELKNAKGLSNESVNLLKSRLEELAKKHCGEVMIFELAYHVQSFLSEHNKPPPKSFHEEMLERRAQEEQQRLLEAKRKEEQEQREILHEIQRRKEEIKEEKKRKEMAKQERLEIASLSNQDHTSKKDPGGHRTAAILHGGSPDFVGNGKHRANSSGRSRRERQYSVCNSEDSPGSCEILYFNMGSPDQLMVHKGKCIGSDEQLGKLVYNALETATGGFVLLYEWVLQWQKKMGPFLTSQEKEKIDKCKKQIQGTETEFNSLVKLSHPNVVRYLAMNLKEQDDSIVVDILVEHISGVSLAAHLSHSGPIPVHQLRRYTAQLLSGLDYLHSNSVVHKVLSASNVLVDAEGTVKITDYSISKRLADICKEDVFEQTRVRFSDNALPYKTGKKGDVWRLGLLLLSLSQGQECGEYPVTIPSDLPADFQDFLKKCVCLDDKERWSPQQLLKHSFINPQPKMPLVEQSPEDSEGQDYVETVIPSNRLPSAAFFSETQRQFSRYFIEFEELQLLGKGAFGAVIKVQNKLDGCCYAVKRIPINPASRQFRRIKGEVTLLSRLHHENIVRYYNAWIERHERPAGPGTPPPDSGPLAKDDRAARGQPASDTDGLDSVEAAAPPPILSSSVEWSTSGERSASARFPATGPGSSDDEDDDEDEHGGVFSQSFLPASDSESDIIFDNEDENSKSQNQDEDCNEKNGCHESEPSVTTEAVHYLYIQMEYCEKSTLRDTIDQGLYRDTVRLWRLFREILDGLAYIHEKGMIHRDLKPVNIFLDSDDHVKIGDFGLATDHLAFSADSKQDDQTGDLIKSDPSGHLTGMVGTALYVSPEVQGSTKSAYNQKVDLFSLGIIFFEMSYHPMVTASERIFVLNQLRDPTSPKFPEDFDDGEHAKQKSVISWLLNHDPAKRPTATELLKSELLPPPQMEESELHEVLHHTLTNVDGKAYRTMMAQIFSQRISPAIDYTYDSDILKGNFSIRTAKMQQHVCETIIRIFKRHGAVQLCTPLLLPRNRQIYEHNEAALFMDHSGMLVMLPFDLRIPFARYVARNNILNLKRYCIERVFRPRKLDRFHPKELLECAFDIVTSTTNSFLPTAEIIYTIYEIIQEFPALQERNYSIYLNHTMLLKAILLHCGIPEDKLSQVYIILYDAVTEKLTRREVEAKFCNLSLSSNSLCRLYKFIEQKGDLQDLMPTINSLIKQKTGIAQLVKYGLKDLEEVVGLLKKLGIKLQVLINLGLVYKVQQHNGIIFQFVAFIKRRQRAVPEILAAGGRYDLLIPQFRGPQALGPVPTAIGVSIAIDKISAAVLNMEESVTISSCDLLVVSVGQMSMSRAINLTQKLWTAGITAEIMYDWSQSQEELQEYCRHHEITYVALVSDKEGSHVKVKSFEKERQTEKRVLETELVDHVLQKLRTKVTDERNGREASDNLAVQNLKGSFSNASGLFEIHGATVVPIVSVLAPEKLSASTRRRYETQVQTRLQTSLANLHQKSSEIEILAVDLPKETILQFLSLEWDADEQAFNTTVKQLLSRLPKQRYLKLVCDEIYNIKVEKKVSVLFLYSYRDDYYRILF
T4 sequence (P52333 whole entry): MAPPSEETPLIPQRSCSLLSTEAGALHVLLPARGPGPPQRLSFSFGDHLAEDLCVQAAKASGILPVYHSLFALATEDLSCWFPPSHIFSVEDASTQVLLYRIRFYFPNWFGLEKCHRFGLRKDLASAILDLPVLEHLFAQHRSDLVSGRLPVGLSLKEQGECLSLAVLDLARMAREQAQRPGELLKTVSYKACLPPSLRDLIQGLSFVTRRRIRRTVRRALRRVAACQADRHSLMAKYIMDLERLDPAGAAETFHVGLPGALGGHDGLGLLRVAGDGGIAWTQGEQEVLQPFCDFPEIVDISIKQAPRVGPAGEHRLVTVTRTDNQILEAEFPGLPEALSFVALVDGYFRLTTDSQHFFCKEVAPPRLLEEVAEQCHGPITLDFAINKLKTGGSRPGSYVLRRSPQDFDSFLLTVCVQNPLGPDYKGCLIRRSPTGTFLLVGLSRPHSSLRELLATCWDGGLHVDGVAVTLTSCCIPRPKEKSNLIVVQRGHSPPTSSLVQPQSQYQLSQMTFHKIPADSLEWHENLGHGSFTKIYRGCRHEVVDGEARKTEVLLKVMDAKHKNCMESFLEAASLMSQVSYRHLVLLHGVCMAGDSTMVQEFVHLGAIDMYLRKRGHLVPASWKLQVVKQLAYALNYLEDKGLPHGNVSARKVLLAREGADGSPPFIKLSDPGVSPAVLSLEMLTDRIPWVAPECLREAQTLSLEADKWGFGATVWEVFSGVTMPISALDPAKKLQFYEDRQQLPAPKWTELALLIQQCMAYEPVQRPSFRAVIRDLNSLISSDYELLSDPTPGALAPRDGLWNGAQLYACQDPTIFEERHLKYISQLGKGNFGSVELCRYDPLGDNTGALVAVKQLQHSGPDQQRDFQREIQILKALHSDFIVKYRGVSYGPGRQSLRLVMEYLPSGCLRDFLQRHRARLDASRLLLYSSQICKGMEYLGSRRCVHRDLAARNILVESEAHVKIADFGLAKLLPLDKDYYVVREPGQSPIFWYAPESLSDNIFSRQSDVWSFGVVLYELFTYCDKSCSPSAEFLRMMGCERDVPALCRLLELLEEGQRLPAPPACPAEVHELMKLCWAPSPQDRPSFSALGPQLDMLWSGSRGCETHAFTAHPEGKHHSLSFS
ERK5, sequence (Q13164 whole entry): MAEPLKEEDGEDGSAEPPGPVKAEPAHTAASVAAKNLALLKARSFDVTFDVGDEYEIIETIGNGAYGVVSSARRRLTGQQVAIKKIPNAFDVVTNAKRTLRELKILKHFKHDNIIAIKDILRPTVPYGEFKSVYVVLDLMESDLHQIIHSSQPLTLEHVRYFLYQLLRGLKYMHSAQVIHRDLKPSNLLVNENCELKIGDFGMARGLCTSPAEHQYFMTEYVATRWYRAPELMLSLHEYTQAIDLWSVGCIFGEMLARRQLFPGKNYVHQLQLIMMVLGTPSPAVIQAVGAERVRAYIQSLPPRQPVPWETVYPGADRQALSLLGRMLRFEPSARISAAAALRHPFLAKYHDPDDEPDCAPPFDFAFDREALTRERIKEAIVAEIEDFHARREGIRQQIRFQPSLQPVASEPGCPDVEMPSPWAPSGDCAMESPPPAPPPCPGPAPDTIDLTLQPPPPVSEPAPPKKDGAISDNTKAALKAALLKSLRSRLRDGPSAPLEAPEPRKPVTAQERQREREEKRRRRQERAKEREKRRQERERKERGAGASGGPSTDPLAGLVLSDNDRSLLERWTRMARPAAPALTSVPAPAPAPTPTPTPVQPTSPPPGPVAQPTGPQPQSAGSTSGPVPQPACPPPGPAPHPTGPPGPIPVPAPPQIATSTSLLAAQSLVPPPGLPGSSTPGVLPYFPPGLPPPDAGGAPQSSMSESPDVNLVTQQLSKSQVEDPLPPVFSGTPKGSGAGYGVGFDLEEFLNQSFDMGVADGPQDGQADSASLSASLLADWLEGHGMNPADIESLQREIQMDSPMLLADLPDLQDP
T2 sequence (P19784 whole entry): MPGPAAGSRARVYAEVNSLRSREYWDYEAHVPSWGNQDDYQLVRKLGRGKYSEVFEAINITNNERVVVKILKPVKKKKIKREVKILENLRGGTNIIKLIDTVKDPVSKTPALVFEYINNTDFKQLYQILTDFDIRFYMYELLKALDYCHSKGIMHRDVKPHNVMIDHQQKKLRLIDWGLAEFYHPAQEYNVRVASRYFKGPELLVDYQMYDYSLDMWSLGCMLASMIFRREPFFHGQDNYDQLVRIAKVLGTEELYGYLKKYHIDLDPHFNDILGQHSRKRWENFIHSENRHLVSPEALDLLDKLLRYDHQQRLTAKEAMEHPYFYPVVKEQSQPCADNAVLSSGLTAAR
T5 sequence (P54760 16-987): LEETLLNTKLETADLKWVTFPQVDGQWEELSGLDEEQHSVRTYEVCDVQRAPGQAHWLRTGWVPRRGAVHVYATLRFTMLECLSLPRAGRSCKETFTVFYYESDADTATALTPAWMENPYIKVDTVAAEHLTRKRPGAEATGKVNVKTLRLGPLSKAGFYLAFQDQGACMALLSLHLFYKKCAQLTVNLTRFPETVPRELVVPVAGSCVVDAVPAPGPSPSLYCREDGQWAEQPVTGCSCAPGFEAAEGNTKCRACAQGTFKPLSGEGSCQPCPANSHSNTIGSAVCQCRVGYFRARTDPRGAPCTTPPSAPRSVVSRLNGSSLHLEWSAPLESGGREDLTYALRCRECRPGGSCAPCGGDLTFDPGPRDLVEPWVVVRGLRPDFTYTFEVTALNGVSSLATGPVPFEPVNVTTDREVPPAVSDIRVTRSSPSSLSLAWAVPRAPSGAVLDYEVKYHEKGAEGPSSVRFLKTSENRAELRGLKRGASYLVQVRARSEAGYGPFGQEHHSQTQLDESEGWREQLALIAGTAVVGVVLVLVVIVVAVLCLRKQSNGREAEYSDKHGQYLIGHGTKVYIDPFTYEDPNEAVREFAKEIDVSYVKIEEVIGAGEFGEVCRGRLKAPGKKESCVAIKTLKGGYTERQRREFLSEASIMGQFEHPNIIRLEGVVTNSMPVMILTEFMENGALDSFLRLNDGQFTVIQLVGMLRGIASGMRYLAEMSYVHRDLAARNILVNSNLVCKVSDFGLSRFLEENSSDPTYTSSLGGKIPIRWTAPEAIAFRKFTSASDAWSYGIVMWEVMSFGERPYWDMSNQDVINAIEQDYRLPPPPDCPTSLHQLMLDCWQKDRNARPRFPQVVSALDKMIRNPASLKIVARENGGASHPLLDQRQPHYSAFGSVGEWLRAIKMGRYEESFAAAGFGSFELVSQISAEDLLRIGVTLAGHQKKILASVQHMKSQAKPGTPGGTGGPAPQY

SMILES	% Inhibition SRC [1] [%]	% Inhibiton, CK2a2 [2] [%]	% Inhibition PKCi [3] [%]	% Inhibiton, JAK3 domain2 [4] [%]	% Inhibiton, EphB4 [5] [%]	% Inhibition PIK3C3 [6] [%]	% Inhibiton, GCN2 [7, 10] [%]	% Inhibiton, GCN2 [7, 11] [%]	% Inhibiton, GCN2 [7, 12] [%]	% Inhibition TLK1 [8, 13] [%]	% Inhibition TLK1 [8, 14] [%]	% Inhibition TLK1 [8, 15] [%]	% Inhibition TLK1 [8, 16] [%]	% Inhibiton, MST3 [9] [%]	KINOMEscan: LRRK2 (panel of 442 kinases)	IC50 (ERK5) [µM]
CCOc1cc(C(=O)N2CCC(N3CCN(C)CC3)CC2)ccc1Nc1ncc2c(n1)N(C1CCCC1)c1ccccc1C(=O)N2C [Compound 26]	13.8	8	-2.8	~53.9	17	8.1	-6.3	1.6	6.4	35.7	6.2	3.6	6.8	9.7		
COc1cc(C(=O)N2CCC(N3CCN(C)CC3)CC2)ccc1Nc1ncc2c(n1)N(C1CCCC1)c1ccccc1C(=O)N2C [Compound 25, 11-cyclopentyl-2-((2-methoxy-4-(4-(4-methylpiperazin-1-yl)piperidine-1-carbonyl)phenyl)amino)-5-methyl-5H-benzo[e]pyrimido[5,4-b][1,4]diazepin-6(11H)-one]	-3.4	-14.2	13.3	31.8	-13.0	4.0	4.5	-1.6	-1.5	-21.7	-9.7	-8.4	-12.2	7.3	28	0.082 ± 0.009
COc1cc(C(=O)N2CCC(N3CCN(C)CC3)CC2)ccc1Nc1ncc2c(n1)N1CCc3cccc(c31)C(=O)N2C [Compound 24]																0.199 ± 0.012
COc1cc(C(=O)N2CCC(N3CCN(C)CC3)CC2)ccc1Nc1ncc2c(n1)N(C)c1ccccc1C(=O)N2C [15 (LRRK2-IN-1)]															0	
